Laboratory results from BindingDB's records for doi:10.1021/jm960324r (1996).

Test system: Herpes simplex virus (HSV) ribonucleotide reductase (RR) enzyme
Experiment: Inhibitory effect was evaluated on Herpes simplex virus (HSV) ribonucleotide reductase (RR) enzyme.

An IC50 of 20 nM was found for CC(C)C[C@@H](NC(=O)[C@@H](CC(=O)O)NC(=O)[C@H](CC(=O)N1CCCC1)NC(=O)[C@H](NC(=O)NC1[C@@H](C)CCC[C@@H]1C)C(C)C)C(=O)O in this work.
